The source of these data is BindingDB's records for patent US20240034743 (Qilu Pharmaceutical, 2024).

What is called IC50 is the midpoint of a concentration-inhibition curve.

The target of the first assay is Epidermal growth factor receptor [L858R,T790M,C797S] (Homo sapiens, UniProt P00533, C797S/L858R/T790M). As to the kind of experiment: Not found.
Epidermal growth factor receptor [L858R,T790M,C797S], sequence (P00533 25-1210 T790M/C797S/L858R limits assumed): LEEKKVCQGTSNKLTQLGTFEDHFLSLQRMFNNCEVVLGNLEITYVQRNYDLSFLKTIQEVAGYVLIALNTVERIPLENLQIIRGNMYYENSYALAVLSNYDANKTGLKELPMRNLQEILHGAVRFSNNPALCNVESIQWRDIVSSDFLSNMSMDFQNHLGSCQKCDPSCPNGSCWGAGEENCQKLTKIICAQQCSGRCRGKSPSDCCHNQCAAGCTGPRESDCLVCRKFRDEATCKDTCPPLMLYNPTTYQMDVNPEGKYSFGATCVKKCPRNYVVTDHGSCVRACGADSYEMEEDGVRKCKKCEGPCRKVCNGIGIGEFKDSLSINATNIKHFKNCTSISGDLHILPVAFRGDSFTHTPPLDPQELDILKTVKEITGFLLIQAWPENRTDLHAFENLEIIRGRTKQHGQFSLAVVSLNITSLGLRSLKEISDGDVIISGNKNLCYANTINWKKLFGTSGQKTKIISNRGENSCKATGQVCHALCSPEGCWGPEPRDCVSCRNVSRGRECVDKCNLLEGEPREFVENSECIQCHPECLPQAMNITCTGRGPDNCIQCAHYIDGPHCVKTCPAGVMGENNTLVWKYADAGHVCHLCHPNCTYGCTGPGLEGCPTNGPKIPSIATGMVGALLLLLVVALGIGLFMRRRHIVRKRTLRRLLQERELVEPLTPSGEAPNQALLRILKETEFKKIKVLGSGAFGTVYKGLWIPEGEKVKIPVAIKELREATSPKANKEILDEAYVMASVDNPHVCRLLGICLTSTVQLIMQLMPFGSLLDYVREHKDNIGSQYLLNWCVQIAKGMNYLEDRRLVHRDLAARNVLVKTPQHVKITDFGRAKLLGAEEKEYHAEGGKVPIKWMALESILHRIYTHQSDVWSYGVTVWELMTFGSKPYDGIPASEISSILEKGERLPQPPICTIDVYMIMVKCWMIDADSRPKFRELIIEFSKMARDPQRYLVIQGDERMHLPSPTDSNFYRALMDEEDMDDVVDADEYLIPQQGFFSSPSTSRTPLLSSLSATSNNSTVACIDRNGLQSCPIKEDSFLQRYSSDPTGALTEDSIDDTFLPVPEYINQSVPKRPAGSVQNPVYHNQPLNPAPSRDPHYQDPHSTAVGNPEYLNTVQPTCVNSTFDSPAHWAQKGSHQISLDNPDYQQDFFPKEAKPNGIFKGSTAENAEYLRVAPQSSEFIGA
Description: Not found
Consider `COc1cc2c(cc1Nc1ncc(Br)c(Nc3ccc4nccnc4c3P(C)(C)=O)n1)-c1cnn(C)c1CCN2C` [US20240034743, Compound 1], for which the IC50 was under 1 nM.

As for `COc1cc2c(cc1Nc1ncc(Br)c(Nc3ccc4nccnc4c3P(C)(C)=O)n1)-c1cnn(C)c1CN(C)C2=O` [US20240034743, Compound 9], the IC50 is under 1 nM.

As for `COc1cc2c(cc1Nc1ncc(Br)c(Nc3ccc4nccnc4c3P(C)(C)=O)n1)-c1cnn(C)c1CCN2C(C)=O` [US20240034743, Compound 15], the IC50 is under 1 nM.

Consider `COc1cc2c(cc1Nc1ncc(C(F)(F)F)c(Nc3ccccc3P(C)(C)=O)n1)-c1cnn(C)c1CCN2C` [US20240034743, Compound 26], for which the IC50 was under 1 nM.

For `COc1cc2c(cc1Nc1ncc(Br)c(Nc3ccccc3P(C)(C)=O)n1)-c1ccnn1CCN2C` [US20240034743, Compound 29], the IC50 is under 1 nM.

The compound `COc1cc2c(cc1Nc1ncc(Br)c(Nc3ccccc3NS(C)(=O)=O)n1)-c1cnn(C)c1CCN2C` [US20240034743, Compound 32] registered an IC50 of under 1 nM.

`COc1cc2c(cc1Nc1ncc(Br)c(Nc3ccccc3P(C)(C)=O)n1)-c1cnn(C)c1CCC2` [US20240034743, Compound 38]: the IC50 is under 1 nM.

In turn, `CCn1ncc2c1CCN(C)c1cc(OC)c(Nc3ncc(Br)c(Nc4ccccc4P(C)(C)=O)n3)cc1-2` [US20240034743, Compound 39] had a half-maximal inhibitory concentration (IC50) of under 1 nM.

Take `COc1cc2c(cc1Nc1ncc(Br)c(Nc3ccccc3P(C)(C)=O)n1)-c1cnn(C)c1CC=C2` [US20240034743, Compound 40]: the concentration for half-maximal inhibition (IC50) was under 1 nM.

`COc1cc2c(cc1Nc1ncc(Br)c(Nc3ccccc3P(C)(C)=O)n1)-c1cnn(C)c1COC2` [US20240034743, Compound 46] registered an IC50 of under 1 nM.

On to `COc1cc2c(cc1Nc1ncc(Br)c(Nc3ccccc3P(C)(C)=O)n1)-c1cnnn1CCN2C` [US20240034743, Compound 48], for which the IC50 is under 1 nM.

`COc1cc2c(cc1Nc1ncc(Br)c(Nc3ccccc3P(C)(C)=O)n1)-c1cnn(C)c1CNC2` [US20240034743, Compound 49] gave an IC50 of under 1 nM.

`COc1cc2c(cc1Nc1ncc(Br)c(Nc3ccccc3P(C)(C)=O)n1)-c1cnn(C)c1CCC2N` (stereo not given) [US20240034743, Compound 50]: the IC50 was under 1 nM.

With `COc1nc2c(cc1Nc1ncc(Br)c(Nc3ccccc3P(C)(C)=O)n1)-c1cnn(C)c1CCN2` [US20240034743, Compound 51], the IC50 is under 1 nM.

`COc1cc2c(cc1Nc1ncc(Br)c(Nc3ccccc3P(C)(C)=O)n1)-c1cnc(C)n1CCN2C` [US20240034743, Compound 55] came in with an IC50 of under 1 nM.

In the case of `COc1cc2c(cc1Nc1nc(Nc3ccccc3P(C)(C)=O)c3sccc3n1)-c1cnn(C)c1CCN2C` [US20240034743, Compound 58], the IC50 was under 1 nM.

For `COc1cc2c(cc1Nc1ncc(Br)c(Nc3ccc4nccnc4c3P(C)(C)=O)n1)-c1cnn(C)c1CCN2C1CCN(C)CC1` [US20240034743, Compound 62], the IC50 was under 1 nM.

As for `COc1cc2c(cc1Nc1ncc(Br)c(Nc3ccccc3P(C)(C)=O)n1)-c1cnn(C)c1CCN2C1COC1` [US20240034743, Compound 64], the IC50 is under 1 nM.

In turn, `COc1cc2c(cc1Nc1ncc(Br)c(Nc3ccccc3P(C)(C)=O)n1)-c1cnn(C)c1CCN2C1CN(CCF)C1` [US20240034743, Compound 69] returned an IC50 of under 1 nM.

Regarding `COc1cc2c(cc1Nc1ncc(Br)c(Nc3ccccc3P(C)(C)=O)n1)-c1cnn(C)c1CCN2CC(F)(F)F` [US20240034743, Compound 73], the IC50 was under 1 nM.

`COc1cc2c(cc1Nc1ncc(Br)c(Nc3ccc4nccnc4c3P(C)(C)=S)n1)-c1cnn(C)c1CCN2C1CCN(C)CC1` [US20240034743, Compound 76] yielded an IC50 of under 1 nM.

On to `COc1nc2c(cc1Nc1ncc(Br)c(Nc3ccccc3P(C)(C)=O)n1)-c1cnn(C)c1CCN2C` [US20240034743, Compound 79], for which the IC50 was under 1 nM.

In turn, `COc1cc2c(cc1Nc1ncc(Br)c(Nc3ccc4nccnc4c3P(C)(C)=O)n1)-c1cnn(C)c1CCN2C1CCCN(C)C1` (stereo not given) [US20240034743, Compound 84] returned an IC50 of under 1 nM.

Compound `COc1cc2c(cc1Nc1ncc(Br)c(Nc3ccc4nccnc4c3P(C)(C)=O)n1)-c1cnn(C)c1CCN2C1CCOCC1` [US20240034743, Compound 88] yielded an IC50 of under 1 nM.

`COc1cc2c(cc1Nc1ncc(Br)c(Nc3ccc4nccnc4c3P(C)(C)=O)n1)-c1cnn(C)c1CCN2C1CC2(C1)CN(C(C)C)C2` [US20240034743, Compound 90] returned an IC50 of under 1 nM.

As to `COc1cc2c(cc1Nc1ncc(Br)c(Nc3ccccc3N(C(C)C)S(C)(=O)=O)n1)-c1cnn(C)c1CCN2C(C)C` [US20240034743, Compound 124], the IC50 is over 1000 nM.

For `CNS(=O)(=O)c1ccccc1Nc1nc(Nc2cc3c(cc2OC)N(C(C)C)CCc2c-3cnn2C)ncc1Br` [US20240034743, Compound 127], the IC50 was over 1000 nM.

As for `COc1cc2c(cc1Nc1ncc(Br)c(Nc3cccc4c3NS(=O)(=O)C4)n1)-c1cnn(C)c1CCN2C(C)C` [US20240034743, Compound 132], the IC50 is under 1 nM.

The target in another assay is Epidermal growth factor receptor (Homo sapiens, UniProt P00533). Kind of assay: Not found.
Epidermal growth factor receptor, sequence (P00533 whole entry): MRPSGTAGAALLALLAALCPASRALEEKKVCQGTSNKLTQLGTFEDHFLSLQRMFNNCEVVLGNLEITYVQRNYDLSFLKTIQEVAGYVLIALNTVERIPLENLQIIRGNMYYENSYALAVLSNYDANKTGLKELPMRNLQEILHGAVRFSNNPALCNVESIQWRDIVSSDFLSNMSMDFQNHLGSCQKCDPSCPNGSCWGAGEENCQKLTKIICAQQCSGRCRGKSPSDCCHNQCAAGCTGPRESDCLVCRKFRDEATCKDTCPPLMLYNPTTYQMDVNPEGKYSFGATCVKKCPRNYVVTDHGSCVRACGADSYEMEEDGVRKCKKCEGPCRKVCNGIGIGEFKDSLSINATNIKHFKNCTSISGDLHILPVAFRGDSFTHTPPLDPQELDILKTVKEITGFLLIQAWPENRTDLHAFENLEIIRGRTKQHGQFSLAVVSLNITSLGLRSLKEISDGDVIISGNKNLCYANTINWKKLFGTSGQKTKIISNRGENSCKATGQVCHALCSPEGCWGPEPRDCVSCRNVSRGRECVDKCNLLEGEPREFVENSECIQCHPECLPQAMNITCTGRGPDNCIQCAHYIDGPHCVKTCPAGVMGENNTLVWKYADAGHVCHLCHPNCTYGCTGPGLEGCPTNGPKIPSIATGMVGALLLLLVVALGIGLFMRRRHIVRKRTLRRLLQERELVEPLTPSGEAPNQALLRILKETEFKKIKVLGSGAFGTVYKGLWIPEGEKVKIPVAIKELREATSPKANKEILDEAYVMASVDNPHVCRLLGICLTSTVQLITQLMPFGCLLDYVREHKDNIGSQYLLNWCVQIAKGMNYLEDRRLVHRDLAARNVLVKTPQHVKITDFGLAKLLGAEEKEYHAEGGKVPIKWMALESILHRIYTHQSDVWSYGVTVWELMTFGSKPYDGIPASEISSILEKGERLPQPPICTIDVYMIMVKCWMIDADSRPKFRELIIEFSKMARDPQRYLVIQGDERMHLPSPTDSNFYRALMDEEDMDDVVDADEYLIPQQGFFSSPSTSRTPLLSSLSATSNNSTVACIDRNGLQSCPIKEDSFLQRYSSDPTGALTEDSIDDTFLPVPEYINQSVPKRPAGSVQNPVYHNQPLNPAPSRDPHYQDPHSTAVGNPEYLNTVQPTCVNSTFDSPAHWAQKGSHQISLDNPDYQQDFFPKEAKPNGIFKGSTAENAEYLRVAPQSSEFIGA
Description: Not found
For the compound `COc1cc2c(cc1Nc1ncc(Cl)c(Nc3ccc4nccnc4c3P(C)(C)=O)n1)-c1cnn(C)c1CCN2C` [US20240034743, Compound 13], the 50% inhibitory concentration (IC50) is under 1 nM.

The compound `COc1cc2c(cc1Nc1ncc(Br)c(Nc3ccccc3P(C)(C)=O)n1)-c1cnn(C)c1CCN2C1CN(C)C1` [US20240034743, Compound 59] had an IC50 of under 1 nM.

Take `COc1cc2c(cc1Nc1ncc(Br)c(Nc3ccc4nccnc4c3P(C)(C)=O)n1)-c1cnn(C)c1CCN2C1CN(C(C)C)C1` [US20240034743, Compound 63]: the IC50 is under 1 nM.

As to `COc1cc2c(cc1Nc1ncc(Br)c(Nc3ccc4nccnc4c3P(C)(C)=O)n1)-c1cnn(C)c1CCN2C1CN(CC2CC2)C1` [US20240034743, Compound 70], the IC50 is under 1 nM.

The compound `COc1cc2c(cc1Nc1ncc(Br)c(Nc3ccc4nccnc4c3P(C)(C)=O)n1)-c1cnn(C)c1CCN2C1CC1` [US20240034743, Compound 74] registered an IC50 of under 1 nM.

As for `COc1cc2c(cc1Nc1ncc(C)c(Nc3ccc4nccnc4c3P(C)(C)=O)n1)-c1cnn(C)c1CCN2C(C)C` [US20240034743, Compound 85], the IC50 is under 1 nM.

Consider `COc1cc2c(cc1Nc1ncc(Br)c(Nc3ccc4nccnc4c3P(C)(C)=O)n1)-c1cnn(C)c1CCN2C1CC2(C1)CN(C)C2` [US20240034743, Compound 89], for which the IC50 is under 1 nM.

As to `COc1cc2c(cc1Nc1ncc(Br)c(Nc3ccc4nccnc4c3P(C)(C)=S)n1)-c1cnn(C)c1CCN2C1CC2(C1)CN(C)C2` [US20240034743, Compound 93], the IC50 was under 1 nM.

`COc1cc2c(cc1Nc1ncc(Br)c(Nc3ccc4nccnc4c3NS(C)(=O)=O)n1)-c1cnn(C)c1CCN2` [US20240034743, Compound 114]: the IC50 is under 1 nM.

Turning to `COc1cc2c(cc1Nc1ncc(Br)c(Nc3ccc4nccnc4c3C(N)=O)n1)-c1cnn(C)c1CCN2C(C)C` [US20240034743, Compound 115], the IC50 was over 1000 nM.

For `COc1cc2c(cc1Nc1ncc(Br)c(Nc3ccc4nccnc4c3NS(C)(=O)=O)n1)-c1cnn(C)c1CCN2CC(C)C` [US20240034743, Compound 133], the IC50 was under 1 nM.

Compound `CCN1CCc2c(cnn2C)-c2cc(Nc3ncc(Br)c(Nc4ccc5nccnc5c4NS(C)(=O)=O)n3)c(OC)cc21` [US20240034743, Compound 139] came in with an IC50 of under 1 nM.
